Laboratory results taken from US4624955A, “6H-isoxazolo[3,4-d]pyrazolo[3,4-b]pyridines, method for their preparation and use as anxiolytic agents” (Hoechst-Roussel Pharmaceuticals, priority 1985, dated 1986).

These molecules were tested against benzodiazepin recognition sites in a membrane preparation from rat brain (assay: 3H-Flunitrazepam binding (displacement from benzodiazepine recognition sites; anxiolytic activity)). Conditions: rat cerebral cortex membranes; 2 nM 3H-flunitrazepam; pH 6.9; 20 minutes at 0-4 °C; log-probit analysis.
Design: species or system rat (male Wistar)

Structure (SMILES) | IC50
CCn1ncc2c3noc(-c4cccc(Cl)c4)c3cnc21 [3-(3-Chlorophenyl)-6-ethyl-6H-isoxazolo[3,4-d]pyrazolo[3,4-b]pyridine] | 4400 nM
CCn1ncc2c3noc(-c4ccc(Cl)cc4)c3cnc21 [3-(4-Chlorophenyl)-6-ethyl-6H-isoxazolo[3,4-d]pyrazolo[3,4-b]pyridine] | 400 nM
CCn1ncc2c3noc(-c4ccccc4OC)c3cnc21 [6-Ethyl-3-(2-methoxyphenyl)-6H-isoxazolo[3,4-d]pyrazolo[3,4-b]pyridine] | 2000 nM
CCn1ncc2c3noc(-c4cccc(F)c4)c3cnc21 [6-Ethyl-3-(3-fluorophenyl)-6H-isoxazolo[3,4-d]pyrazolo[3,4-b]pyridine] | 2300 nM
CCn1ncc2c3noc(-c4ccc(F)cc4)c3cnc21 [6-Ethyl-3-(4-fluorophenyl)-6H-isoxazolo[3,4-d]pyrazolo[3,4-b]pyridine] | 530 nM
CCn1ncc2c3noc(-c4ccc(OC)cc4)c3cnc21 [6-Ethyl-3-(4-methoxyphenyl)-6H-isoxazolo[3,4-d]pyrazolo[3,4-b]pyridine] | 1200 nM
CCn1ncc2c3noc(-c4ccc(C)cc4)c3cnc21 [6-Ethyl-3-(4-tolyl)-6H-isoxazolo[3,4-d]pyrazolo[3,4-b]pyridine] | 990 nM
CCn1ncc2c3noc(-c4ccccc4)c3cnc21 [6-Ethyl-3-phenyl-6H-isoxazolo[3,4-d]pyrazolo[3,4-b]pyridine] | 470 nM
CNC1=Nc2ccc(Cl)cc2C(c2ccccc2)=[N+]([O-])C1 [Chlordiazepoxide, reference compound] | 340 nM
